# Results reported in ChEMBL document CHEMBL1201862, “PubChem BioAssay data set” (2004).
#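 Values below derive from 48-hour exposures of cells grown in 96-well plates, with endpoints linearly interpolated between the two concentrations bracketing the appropriate inhibition level. GI50: concentration for 50% inhibition of growth.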 Activity calls are given as the source filed them. Cut-off read from the data, not from the text of the source: active = GI50 up to about 1.1 µM and inactive = higher.
# Tests used:
# Experiment in all cases: DTP human tumour cell line panel, 48 h
# 786-0 = system: 786-0
# A498 = system: A498
# A549 = system: A549
# ACHN = system: ACHN
# BT-549 = system: BT-549
# CAKI-1 = system: CAKI-1
# COLO 205 = system: COLO 205
# DU-145 = system: DU-145
# EKVX = system: EKVX
# HCC 2998 = system: HCC 2998
# HCT-116 = system: HCT-116
# HCT-15 = system: HCT-15
# HL-60 = system: HL-60
# HOP-62 = system: HOP-62
# HOP-92 = system: HOP-92
# HT-29 = system: HT-29
# Hs-578T = system: Hs-578T
# IGROV-1 = system: IGROV-1
# K562 = system: K562
# KM12 = system: KM12
# LOX IMVI = system: LOX IMVI
# M14 = system: M14
# MCF7 = system: MCF7
# MDA-MB-231 = system: MDA-MB-231
# MDA-MB-435 = system: MDA-MB-435
# MDA-N = system: MDA-N
# Malme-3M = system: Malme-3M
# NCI-H226 = system: NCI-H226
# NCI-H23 = system: NCI-H23
# NCI-H460 = system: NCI-H460
# NCI-H522 = system: NCI-H522
# NCI/ADR-RES = system: NCI/ADR-RES
# OVCAR-3 = system: OVCAR-3
# OVCAR-4 = system: OVCAR-4
# OVCAR-5 = system: OVCAR-5
# OVCAR-8 = system: OVCAR-8
# PC-3 = system: PC-3
# RPMI-8226 = system: RPMI-8226
# RXF 393 = system: RXF 393
# SF-268 = system: SF-268
# SF-295 = system: SF-295
# SK-MEL-28 = system: SK-MEL-28
# SK-MEL-2 = system: SK-MEL-2
# SK-MEL-5 = system: SK-MEL-5
# SN12C = system: SN12C
# SNB-19 = system: SNB-19
# SNB-75 = system: SNB-75
# SR = system: SR
# SW-620 = system: SW-620
# T47D = system: T47D
# TK-10 = system: TK-10
# U-251 = system: U-251
# UACC-257 = system: UACC-257
# UACC-62 = system: UACC-62
# UO-31 = system: UO-31
# CCRF-CEM = system: CCRF-CEM
# MOLT-4 = system: MOLT-4
# SF-539 = system: SF-539
# SK-OV-3 = system: SK-OV-3
smiles,measurement,setting,value
C[C@@]1(c2ccccc2)O[C@@H]2C[C@H]3[C@@H]4CCC5=CC(=O)C=C[C@]5(C)[C@@]4(F)[C@@H](O)C[C@]3(C)[C@]2(C(=O)CO)O1 [AMCINAFIDE],GI50,786-0,16.3 µM (inactive)
same,GI50,A498,18 µM (inactive)
same,GI50,A549,11.8 µM (inactive)
same,GI50,ACHN,18.1 µM (inactive)
same,GI50,BT-549,18.2 µM (inactive)
same,GI50,CAKI-1,23.3 µM (inactive)
same,GI50,COLO 205,14.4 µM (inactive)
same,GI50,DU-145,20.1 µM (inactive)
same,GI50,EKVX,12.4 µM (inactive)
same,GI50,HCC 2998,17.3 µM (inactive)
same,GI50,HCT-116,14.6 µM (inactive)
same,GI50,HCT-15,17.9 µM
same,GI50,HL-60,18.8 µM (inactive)
same,GI50,HOP-62,15.6 µM (inactive)
same,GI50,HOP-92,22.3 µM (inactive)
same,GI50,HT-29,17 µM (inactive)
same,GI50,Hs-578T,18.7 µM (inactive)
same,GI50,IGROV-1,17.7 µM (inactive)
same,GI50,K562,12.5 µM (inactive)
same,GI50,KM12,16.4 µM (inactive)
same,GI50,LOX IMVI,23.8 µM (inactive)
same,GI50,M14,16.1 µM (inactive)
same,GI50,MCF7,13.9 µM (inactive)
same,GI50,MDA-MB-231,11.1 µM (inactive)
same,GI50,MDA-MB-435,18.7 µM (inactive)
same,GI50,MDA-N,17 µM (inactive)
same,GI50,Malme-3M,13.8 µM (inactive)
same,GI50,NCI-H226,15.8 µM (inactive)
same,GI50,NCI-H23,18.1 µM (inactive)
same,GI50,NCI-H460,14.6 µM (inactive)
same,GI50,NCI-H522,11.5 µM (inactive)
same,GI50,NCI/ADR-RES,15 µM (inactive)
same,GI50,OVCAR-3,15 µM (inactive)
same,GI50,OVCAR-4,15 µM (inactive)
same,GI50,OVCAR-5,15.6 µM (inactive)
same,GI50,OVCAR-8,17.5 µM (inactive)
same,GI50,PC-3,16 µM (inactive)
same,GI50,RPMI-8226,< 0.01 µM (active)
same,GI50,RXF 393,20.1 µM (inactive)
same,GI50,SF-268,15.1 µM (inactive)
same,GI50,SF-295,16.7 µM (inactive)
same,GI50,SK-MEL-28,16.3 µM (inactive)
same,GI50,SK-MEL-2,14.4 µM (inactive)
same,GI50,SK-MEL-5,14.9 µM (inactive)
same,GI50,SN12C,12.9 µM (inactive)
same,GI50,SNB-19,24.7 µM (inactive)
same,GI50,SNB-75,26.9 µM (inactive)
same,GI50,SR,19.3 µM (inactive)
same,GI50,SW-620,21.9 µM (inactive)
same,GI50,T47D,20.2 µM (inactive)
same,GI50,TK-10,19.5 µM (inactive)
same,GI50,U-251,17.7 µM (inactive)
same,GI50,UACC-257,17.6 µM (inactive)
same,GI50,UACC-62,16.7 µM (inactive)
same,GI50,UO-31,18.1 µM (inactive)
O=C1C(Br)=C(Br)C(=O)c2c(O)ccc(O)c21,GI50,786-0,1.56 µM (inactive)
same,GI50,A498,21.7 µM (inactive)
same,GI50,A549,19.3 µM (inactive)
same,GI50,ACHN,2.48 µM (inactive)
same,GI50,BT-549,13.9 µM (inactive)
same,GI50,CCRF-CEM,0.189 µM (active)
same,GI50,COLO 205,1.09 µM (active)
same,GI50,DU-145,12.1 µM (inactive)
same,GI50,EKVX,20.7 µM (inactive)
same,GI50,HCC 2998,19.8 µM (inactive)
same,GI50,HCT-116,3.56 µM (inactive)
same,GI50,HCT-15,2.19 µM
same,GI50,HL-60,0.168 µM (active)
same,GI50,HOP-62,9.38 µM (inactive)
same,GI50,HOP-92,2.11 µM (inactive)
same,GI50,HT-29,3.15 µM (inactive)
same,GI50,Hs-578T,27.1 µM (inactive)
same,GI50,IGROV-1,14.7 µM (inactive)
same,GI50,K562,0.596 µM (active)
same,GI50,KM12,11.4 µM (inactive)
same,GI50,M14,1.85 µM (inactive)
same,GI50,MCF7,2.42 µM (inactive)
same,GI50,MDA-MB-231,2.64 µM (inactive)
same,GI50,MDA-MB-435,3.07 µM (inactive)
same,GI50,MDA-N,2.49 µM (inactive)
same,GI50,MOLT-4,0.0733 µM (active)
same,GI50,Malme-3M,1.45 µM (inactive)
same,GI50,NCI-H226,28.4 µM (inactive)
same,GI50,NCI-H23,4.67 µM (inactive)
same,GI50,NCI-H460,16.3 µM (inactive)
same,GI50,NCI-H522,0.287 µM (active)
same,GI50,NCI/ADR-RES,12.2 µM (inactive)
same,GI50,OVCAR-3,5.85 µM (inactive)
same,GI50,OVCAR-4,3.6 µM (inactive)
same,GI50,OVCAR-5,17 µM (inactive)
same,GI50,OVCAR-8,8.83 µM (inactive)
same,GI50,PC-3,15.4 µM (inactive)
same,GI50,RPMI-8226,0.721 µM (active)
same,GI50,RXF 393,2.65 µM (inactive)
same,GI50,SF-268,16.9 µM (inactive)
same,GI50,SF-295,17.8 µM (inactive)
same,GI50,SF-539,15.9 µM (inactive)
same,GI50,SK-MEL-28,2.06 µM (inactive)
same,GI50,SK-MEL-2,26.2 µM (inactive)
same,GI50,SK-MEL-5,9.14 µM (inactive)
same,GI50,SK-OV-3,20 µM (inactive)
same,GI50,SN12C,7.66 µM (inactive)
same,GI50,SNB-19,18.3 µM (inactive)
same,GI50,SNB-75,18.8 µM (inactive)
same,GI50,SR,0.0352 µM (active)
same,GI50,SW-620,1.33 µM (inactive)
same,GI50,T47D,2.19 µM (inactive)
same,GI50,TK-10,2.27 µM (inactive)
same,GI50,U-251,16.4 µM (inactive)
same,GI50,UACC-257,5.43 µM (inactive)
same,GI50,UACC-62,11.2 µM (inactive)
same,GI50,UO-31,2.79 µM (inactive)
